Reference: ChEMBL document CHEMBL1201862, “PubChem BioAssay data set” (2004)
The source made the active and inactive calls.

Experiments:
[1] = molecular target: Photoreceptor-specific nuclear receptor (Homo sapiens, UniProt Q9Y5X4); experiment: ligands suppressing NR2E3 nuclear receptor activity – biochemical, TR-FRET, dose response (AID 463256); format: functional
[2] = molecular target: Peroxisome proliferator-activated receptor gamma/Nuclear receptor coactivator 3 (Homo sapiens, UniProt P37231); format: functional;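 note: agonist potency for raising coactivator recruitment to the receptor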
[3] = molecular target: Peroxisome proliferator-activated receptor gamma/Nuclear receptor coactivator 1 (Homo sapiens, UniProt P37231); format: functional;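 note: agonist potency as compounds enhance coactivator SRC-1 recruitment to PPARgamma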
[4] = molecular target: Peroxisome proliferator-activated receptor gamma/Nuclear receptor corepressor 2 (Homo sapiens, UniProt P37231+Q9Y618); experiment: Counterscreen for NR2E3 inverse agonists: TR-FRET-based biochemical high throughput dose response assay to identify inverse agonists of the interaction between peroxisome proliferator-activated receptor gamma (PPARg) and nuclear receptor co-repressor 2 (NCOR2).; format: functional
Chain of Peroxisome proliferator-activated receptor gamma/Nuclear receptor corepressor 2 (P37231 whole entry): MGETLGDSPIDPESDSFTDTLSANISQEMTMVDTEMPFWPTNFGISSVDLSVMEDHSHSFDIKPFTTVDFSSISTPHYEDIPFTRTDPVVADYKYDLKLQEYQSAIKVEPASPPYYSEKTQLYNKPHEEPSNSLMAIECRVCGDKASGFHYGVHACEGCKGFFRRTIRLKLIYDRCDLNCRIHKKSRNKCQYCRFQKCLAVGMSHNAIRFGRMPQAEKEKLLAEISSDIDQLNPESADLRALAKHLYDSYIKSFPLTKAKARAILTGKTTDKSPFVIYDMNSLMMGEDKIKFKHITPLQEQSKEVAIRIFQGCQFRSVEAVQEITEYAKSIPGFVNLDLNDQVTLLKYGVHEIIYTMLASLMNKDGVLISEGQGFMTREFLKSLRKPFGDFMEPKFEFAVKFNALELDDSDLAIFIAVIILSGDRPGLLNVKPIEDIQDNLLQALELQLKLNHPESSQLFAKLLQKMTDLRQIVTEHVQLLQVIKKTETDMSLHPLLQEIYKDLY
Chain of Peroxisome proliferator-activated receptor gamma/Nuclear receptor corepressor 2 (Q9Y618 whole entry): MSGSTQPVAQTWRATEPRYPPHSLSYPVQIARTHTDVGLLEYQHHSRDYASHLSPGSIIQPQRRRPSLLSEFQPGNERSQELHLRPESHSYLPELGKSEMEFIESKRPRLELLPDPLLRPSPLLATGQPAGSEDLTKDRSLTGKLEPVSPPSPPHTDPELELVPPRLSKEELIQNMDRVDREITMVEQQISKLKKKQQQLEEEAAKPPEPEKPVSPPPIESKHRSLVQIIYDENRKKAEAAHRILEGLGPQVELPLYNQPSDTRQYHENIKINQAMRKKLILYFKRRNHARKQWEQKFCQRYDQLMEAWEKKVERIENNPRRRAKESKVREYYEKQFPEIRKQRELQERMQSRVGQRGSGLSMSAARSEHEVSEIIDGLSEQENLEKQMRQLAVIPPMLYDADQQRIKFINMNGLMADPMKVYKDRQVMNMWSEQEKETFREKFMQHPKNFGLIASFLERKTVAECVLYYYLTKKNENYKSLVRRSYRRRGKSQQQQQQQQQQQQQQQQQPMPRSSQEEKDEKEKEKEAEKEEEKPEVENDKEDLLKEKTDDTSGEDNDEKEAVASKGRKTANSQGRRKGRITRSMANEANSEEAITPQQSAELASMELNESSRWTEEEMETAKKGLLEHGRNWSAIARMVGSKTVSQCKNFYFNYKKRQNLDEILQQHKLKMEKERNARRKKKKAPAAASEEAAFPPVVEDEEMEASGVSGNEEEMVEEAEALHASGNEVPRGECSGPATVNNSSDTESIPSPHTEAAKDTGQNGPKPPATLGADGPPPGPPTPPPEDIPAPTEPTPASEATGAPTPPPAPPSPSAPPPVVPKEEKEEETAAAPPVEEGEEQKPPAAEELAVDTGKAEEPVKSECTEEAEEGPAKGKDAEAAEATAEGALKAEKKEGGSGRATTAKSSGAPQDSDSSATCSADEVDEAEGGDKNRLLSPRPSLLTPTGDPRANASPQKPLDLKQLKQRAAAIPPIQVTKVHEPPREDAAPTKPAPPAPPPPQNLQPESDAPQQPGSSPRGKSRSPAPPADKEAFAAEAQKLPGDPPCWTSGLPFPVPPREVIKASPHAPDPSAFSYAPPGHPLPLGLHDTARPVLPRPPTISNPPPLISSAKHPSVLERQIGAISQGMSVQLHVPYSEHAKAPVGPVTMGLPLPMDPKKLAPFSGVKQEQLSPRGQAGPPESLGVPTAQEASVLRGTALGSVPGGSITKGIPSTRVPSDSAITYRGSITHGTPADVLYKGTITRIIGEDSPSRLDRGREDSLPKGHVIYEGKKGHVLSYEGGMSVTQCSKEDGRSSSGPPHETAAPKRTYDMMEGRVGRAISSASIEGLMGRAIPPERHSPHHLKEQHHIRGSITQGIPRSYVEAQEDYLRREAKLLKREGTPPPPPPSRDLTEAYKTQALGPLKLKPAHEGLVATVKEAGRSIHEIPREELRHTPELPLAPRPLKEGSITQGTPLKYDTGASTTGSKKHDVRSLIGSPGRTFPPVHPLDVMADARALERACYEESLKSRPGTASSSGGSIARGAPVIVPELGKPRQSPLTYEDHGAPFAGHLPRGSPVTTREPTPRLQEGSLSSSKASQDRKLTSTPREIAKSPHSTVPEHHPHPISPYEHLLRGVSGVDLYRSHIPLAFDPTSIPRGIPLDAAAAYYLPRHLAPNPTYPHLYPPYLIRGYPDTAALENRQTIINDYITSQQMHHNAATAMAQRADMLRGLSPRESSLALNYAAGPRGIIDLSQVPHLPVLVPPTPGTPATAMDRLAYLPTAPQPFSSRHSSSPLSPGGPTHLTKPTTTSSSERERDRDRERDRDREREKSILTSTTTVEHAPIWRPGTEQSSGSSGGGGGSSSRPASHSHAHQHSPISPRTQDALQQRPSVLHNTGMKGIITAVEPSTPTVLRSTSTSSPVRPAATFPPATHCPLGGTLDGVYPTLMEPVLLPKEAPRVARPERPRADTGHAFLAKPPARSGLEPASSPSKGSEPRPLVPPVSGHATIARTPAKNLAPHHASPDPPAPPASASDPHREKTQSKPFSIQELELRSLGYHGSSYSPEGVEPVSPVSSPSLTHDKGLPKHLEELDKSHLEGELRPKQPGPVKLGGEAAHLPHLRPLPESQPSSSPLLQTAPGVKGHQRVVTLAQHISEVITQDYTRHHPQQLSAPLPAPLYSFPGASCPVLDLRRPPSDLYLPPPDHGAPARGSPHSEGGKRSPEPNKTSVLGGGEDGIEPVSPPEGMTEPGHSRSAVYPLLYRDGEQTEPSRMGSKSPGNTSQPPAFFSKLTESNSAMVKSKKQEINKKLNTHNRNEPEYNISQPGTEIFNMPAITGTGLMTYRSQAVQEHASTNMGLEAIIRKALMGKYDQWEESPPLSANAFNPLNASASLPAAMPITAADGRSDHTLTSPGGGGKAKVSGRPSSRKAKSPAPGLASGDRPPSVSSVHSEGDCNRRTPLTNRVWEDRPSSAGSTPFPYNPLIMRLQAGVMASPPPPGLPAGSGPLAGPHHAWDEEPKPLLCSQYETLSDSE

[5] = molecular target: Peroxisome proliferator-activated receptor gamma/Nuclear receptor coactivator 2 (Homo sapiens, UniProt P37231); format: functional;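 note: agonist potency for raising coactivator recruitment to the receptor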
[6] = molecular target: Dual specificity tyrosine-phosphorylation-regulated kinase 1A (Rattus norvegicus, UniProt Q63470); format: biochemical, Homo sapiens
[7] = molecular target: Mitogen-activated protein kinase 10 (Homo sapiens, UniProt P53779); experiment: Dose response biochemical screening assay for inhibitors of c-Jun N-Terminal Kinase 3 (JNK3). [Related pubchem assays: 746 ]
Chain of Mitogen-activated protein kinase 10 (P53779 whole entry): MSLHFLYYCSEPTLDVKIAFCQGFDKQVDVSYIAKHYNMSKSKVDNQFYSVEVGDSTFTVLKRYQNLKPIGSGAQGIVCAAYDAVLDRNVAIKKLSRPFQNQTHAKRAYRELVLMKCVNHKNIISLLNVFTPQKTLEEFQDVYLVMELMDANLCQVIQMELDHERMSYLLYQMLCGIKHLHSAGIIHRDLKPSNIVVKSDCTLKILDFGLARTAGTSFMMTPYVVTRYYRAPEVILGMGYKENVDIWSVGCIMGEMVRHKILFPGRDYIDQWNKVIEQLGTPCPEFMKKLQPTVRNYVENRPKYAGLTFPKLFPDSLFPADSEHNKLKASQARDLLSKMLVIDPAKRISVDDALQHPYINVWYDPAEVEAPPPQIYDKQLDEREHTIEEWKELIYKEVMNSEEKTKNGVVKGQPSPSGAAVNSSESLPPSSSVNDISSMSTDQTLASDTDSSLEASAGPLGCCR

NADPH oxidase 1 = NADPH oxidase 1 (Homo sapiens, UniProt Q9Y5S8); experiment: Late-stage luminescence-based cell-based dose response assay to identify inhibitors of NADPH oxidase 1 (NOX1): Synthesized analogs.; format: functional
Chain of NADPH oxidase 1 (Q9Y5S8 whole entry): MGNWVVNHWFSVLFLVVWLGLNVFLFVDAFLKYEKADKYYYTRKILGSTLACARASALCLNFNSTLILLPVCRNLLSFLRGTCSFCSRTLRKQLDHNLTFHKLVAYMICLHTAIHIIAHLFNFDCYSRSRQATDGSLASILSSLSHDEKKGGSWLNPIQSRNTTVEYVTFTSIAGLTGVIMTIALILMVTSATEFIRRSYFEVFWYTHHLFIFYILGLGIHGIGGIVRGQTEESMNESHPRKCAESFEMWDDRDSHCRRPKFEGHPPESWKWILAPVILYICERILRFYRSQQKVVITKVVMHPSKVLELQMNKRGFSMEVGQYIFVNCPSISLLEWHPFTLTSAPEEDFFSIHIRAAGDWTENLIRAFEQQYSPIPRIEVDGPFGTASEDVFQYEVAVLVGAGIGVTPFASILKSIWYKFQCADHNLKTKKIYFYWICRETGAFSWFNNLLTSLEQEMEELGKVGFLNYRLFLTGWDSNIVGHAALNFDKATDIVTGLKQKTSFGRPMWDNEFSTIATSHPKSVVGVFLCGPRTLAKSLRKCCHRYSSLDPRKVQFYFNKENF

[8] = molecular target: G-protein coupled receptor 55 (Homo sapiens, UniProt Q9Y2T6); experiment: selective activators of receptor GPR55 – imaging, U2OS cells, beta-arrestin-GFP redistribution, primary screen (AID 1961); format: functional
Chain of G-protein coupled receptor 55 (Q9Y2T6 whole entry): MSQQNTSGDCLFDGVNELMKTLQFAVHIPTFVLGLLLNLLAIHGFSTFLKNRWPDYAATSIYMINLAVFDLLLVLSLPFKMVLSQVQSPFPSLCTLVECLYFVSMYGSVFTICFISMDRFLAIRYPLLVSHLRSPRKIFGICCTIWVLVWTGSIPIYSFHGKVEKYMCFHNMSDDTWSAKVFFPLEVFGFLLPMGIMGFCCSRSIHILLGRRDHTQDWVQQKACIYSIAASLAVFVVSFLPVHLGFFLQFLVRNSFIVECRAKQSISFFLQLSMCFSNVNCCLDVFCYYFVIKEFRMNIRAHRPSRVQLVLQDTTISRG

[9] = fluconazole-exposed Candida albicans growth modulators – fluorescence, retest, confirmation (AID 2467); format: functional, cell-based
[10] = molecular target: T1, Mannose-6-phosphate isomerase (Homo sapiens, UniProt P34949); experiment: MPI inhibition at elevated mannose 6-phosphate – biochemical, fluorescence intensity, high mannose 6-phosphate, primary screen (AID 1220)
T1 sequence (P34949 whole entry): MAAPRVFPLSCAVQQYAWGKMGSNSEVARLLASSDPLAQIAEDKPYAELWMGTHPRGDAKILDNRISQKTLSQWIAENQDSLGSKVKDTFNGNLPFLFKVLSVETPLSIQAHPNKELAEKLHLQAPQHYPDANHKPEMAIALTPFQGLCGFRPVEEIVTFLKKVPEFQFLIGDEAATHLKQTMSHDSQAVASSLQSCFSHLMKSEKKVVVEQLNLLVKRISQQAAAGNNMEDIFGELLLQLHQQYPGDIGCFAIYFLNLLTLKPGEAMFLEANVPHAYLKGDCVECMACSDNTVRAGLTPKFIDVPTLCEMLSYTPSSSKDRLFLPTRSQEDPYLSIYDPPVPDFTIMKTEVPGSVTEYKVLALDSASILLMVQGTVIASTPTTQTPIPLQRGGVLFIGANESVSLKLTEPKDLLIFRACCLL

[11] = molecular target: Heat shock protein HSP 90-alpha (Homo sapiens, UniProt P07900); format: functional, organism-based
[12] = molecular target: T2, Rac GTPase-activating protein 1 (Homo sapiens, UniProt Q9H0H5); experiment: blockers of MgcRacGAP-driven Rac1 GTP hydrolysis – biochemical, ADP Hunter fluorescence, primary and confirmatory, confirmation (AID 624330); format: functional
T2 sequence (Q9H0H5 whole entry): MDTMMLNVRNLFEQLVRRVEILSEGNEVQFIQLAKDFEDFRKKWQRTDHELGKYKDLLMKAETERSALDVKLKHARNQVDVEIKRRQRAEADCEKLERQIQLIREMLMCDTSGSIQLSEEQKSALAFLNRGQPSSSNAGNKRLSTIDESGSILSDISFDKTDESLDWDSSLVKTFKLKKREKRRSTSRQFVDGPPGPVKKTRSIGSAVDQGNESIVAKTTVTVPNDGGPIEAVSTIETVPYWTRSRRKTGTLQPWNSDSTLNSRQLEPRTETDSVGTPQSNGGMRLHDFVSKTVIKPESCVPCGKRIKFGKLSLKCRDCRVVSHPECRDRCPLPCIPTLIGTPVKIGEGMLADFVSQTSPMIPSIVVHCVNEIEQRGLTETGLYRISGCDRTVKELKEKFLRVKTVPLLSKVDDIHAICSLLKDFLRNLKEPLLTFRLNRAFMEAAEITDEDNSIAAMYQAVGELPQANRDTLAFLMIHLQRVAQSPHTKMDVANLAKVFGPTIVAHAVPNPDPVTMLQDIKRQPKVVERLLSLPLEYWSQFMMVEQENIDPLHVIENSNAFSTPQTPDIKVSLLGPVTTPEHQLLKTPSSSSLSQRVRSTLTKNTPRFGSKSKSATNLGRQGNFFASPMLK

[13] = NIH-3T3 fibroblast cytotoxicity, dose response, cytotoxicity control, cell-based, fluorescence, Alamar Blue, secondary assay (AID 2327); format: functional;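 note: NIH-3T3 mouse fibroblasts cultured with fluconazole at 8 µg/mL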
[14] = molecular target: T1, Mannose-6-phosphate isomerase; experiment: MPI enzyme activity inhibition – biochemical, fluorescence intensity, coupled assay, primary screen (AID 1209)
[15] = HCT116 cell viability decrease, GSK3B pretreatment – CellTiter-Glo, IC50, dose response (AID 1117339); format: functional; settings: HCT-116
[16] = Reduced DLD-1 viability, concentration-response, CellTiter-Glo luminescence (AID 1117352); format: functional
[17] = RKO cell viability reduction, dose response, CellTiter-Glo luminescence (AID 1117322); format: functional
[18] = CellTiter-Glo luminescence survival assay, SW480 colon tumor line, concentration-response curve, half-maximal inhibitory concentration (AID 1117338); format: functional
[19] = rise of 4N DNA cells, HeLa – IC50, dose response (AID 1117351); format: functional, cell-based
[20] = cytotoxicity toward HCT116 cells – cell-based, CellTiter-Glo luminescence, IC50, dose response (AID 1117332); format: functional; settings: HCT-116
[21] = SNU-C1 cell viability reduction, dose response, CellTiter-Glo luminescence (AID 1117323); format: functional, cell-based
[22] = cytotoxicity toward HT-29 cells – cell-based, CellTiter-Glo luminescence, IC50, dose response (AID 1117330); format: functional
[23] = rise of 2N DNA cells, HeLa – IC50, dose response (AID 1117349); format: functional, cell-based
14-3-3 protein gamma = 14-3-3 protein gamma (Homo sapiens, UniProt P61981); experiment: modulators of 14-3-3 gamma client binding – dose response (AID 711); format: functional
Chain of 14-3-3 protein gamma (P61981 whole entry, the tested form may be a part): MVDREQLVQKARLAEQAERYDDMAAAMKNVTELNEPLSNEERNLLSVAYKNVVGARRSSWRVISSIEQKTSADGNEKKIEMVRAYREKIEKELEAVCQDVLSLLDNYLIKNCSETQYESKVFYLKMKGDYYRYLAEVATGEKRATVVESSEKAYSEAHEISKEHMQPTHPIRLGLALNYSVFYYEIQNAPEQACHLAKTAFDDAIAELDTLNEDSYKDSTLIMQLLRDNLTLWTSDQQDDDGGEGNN

[24] = molecular target: T3, RNA-binding protein pos-1 (Caenorhabditis elegans, UniProt G5EF15); experiment: disruptors of C. elegans POS-1 RNA interaction – biochemical, fluorescence polarization, dose response (AID 1964);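 note: purified POS-1 fused to maltose binding protein made in E. coli; potency of compounds blocking POS-1 binding to fluorescent RNA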
T3 sequence (G5EF15 whole entry): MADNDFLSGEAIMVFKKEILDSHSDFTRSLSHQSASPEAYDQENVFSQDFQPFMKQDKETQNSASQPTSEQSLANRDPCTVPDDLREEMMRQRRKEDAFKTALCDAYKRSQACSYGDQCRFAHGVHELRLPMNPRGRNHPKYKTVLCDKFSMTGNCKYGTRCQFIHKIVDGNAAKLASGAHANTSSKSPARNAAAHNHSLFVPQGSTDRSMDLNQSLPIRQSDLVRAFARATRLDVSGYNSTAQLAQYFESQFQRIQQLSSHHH

[25] = molecular target: T4, Zinc finger protein mex-5 (Caenorhabditis elegans, UniProt Q9XUB2); experiment: potency of MEX-5 RNA-binding blockers – biochemical, C. elegans, fluorescence polarization, dose response (AID 1960)
T4 sequence (Q9XUB2 whole entry): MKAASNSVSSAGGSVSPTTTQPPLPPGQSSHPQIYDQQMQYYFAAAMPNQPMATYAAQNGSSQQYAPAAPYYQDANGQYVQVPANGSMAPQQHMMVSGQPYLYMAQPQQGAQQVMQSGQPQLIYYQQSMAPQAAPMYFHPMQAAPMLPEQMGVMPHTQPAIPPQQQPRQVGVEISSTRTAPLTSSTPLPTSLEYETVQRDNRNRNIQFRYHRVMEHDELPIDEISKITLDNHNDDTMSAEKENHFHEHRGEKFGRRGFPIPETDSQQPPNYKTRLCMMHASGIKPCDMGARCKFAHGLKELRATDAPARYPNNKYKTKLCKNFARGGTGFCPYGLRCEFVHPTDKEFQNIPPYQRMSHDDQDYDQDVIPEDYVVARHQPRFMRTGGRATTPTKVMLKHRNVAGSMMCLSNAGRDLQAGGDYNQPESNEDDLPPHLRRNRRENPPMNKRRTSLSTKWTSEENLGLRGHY

[26] = molecular target: Eukaryotic translation initiation factor 4E (Mus musculus, UniProt P63073); experiment: blockers of eIF4G binding by eIF4E – biochemical, TR-FRET, dose response (AID 855); format: functional;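 note: potency for disrupting eIF4E binding to eIF4GI seen as loss of FRET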
[27] = molecular target: Induced myeloid leukemia cell differentiation protein Mcl-1 (Homo sapiens, UniProt Q07820); format: functional
Chain of Induced myeloid leukemia cell differentiation protein Mcl-1 (Q07820 whole entry): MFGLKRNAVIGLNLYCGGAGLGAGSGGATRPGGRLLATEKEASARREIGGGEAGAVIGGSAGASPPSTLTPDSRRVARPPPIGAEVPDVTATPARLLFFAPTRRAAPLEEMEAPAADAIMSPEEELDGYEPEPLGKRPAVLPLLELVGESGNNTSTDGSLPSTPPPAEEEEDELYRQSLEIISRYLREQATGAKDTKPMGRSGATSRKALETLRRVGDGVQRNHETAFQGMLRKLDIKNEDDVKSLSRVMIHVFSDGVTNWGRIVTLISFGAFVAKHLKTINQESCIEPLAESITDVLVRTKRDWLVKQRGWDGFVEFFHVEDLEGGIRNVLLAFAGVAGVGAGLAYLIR

Protein Tat = Protein Tat (Human immunodeficiency virus type 1 group M subtype B (isolate HXB2)(HIV-1), UniProt P04608); format: functional;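 note: tat binding to TAR RNA read out by fluorescence polarization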
Chain of Protein Tat (P04608 whole entry): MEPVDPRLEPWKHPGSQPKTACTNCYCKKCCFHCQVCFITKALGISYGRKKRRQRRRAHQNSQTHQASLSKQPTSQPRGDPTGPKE

Large T antigen = Large T antigen (Simian virus 40, UniProt P03070); format: functional, Betapolyomavirus macacae;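 note: Confirmatory-stage PubChem screen for compounds that inhibit SV40 T antigen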
Hexokinase HKDC1 = molecular target: T5, Hexokinase HKDC1 (Homo sapiens, UniProt Q2TB90); experiment: inhibition of HKDC1 glucose phosphorylation – biochemical, W721R variant, dose response (AID 504729); format: functional
T5 sequence (Q2TB90 whole entry): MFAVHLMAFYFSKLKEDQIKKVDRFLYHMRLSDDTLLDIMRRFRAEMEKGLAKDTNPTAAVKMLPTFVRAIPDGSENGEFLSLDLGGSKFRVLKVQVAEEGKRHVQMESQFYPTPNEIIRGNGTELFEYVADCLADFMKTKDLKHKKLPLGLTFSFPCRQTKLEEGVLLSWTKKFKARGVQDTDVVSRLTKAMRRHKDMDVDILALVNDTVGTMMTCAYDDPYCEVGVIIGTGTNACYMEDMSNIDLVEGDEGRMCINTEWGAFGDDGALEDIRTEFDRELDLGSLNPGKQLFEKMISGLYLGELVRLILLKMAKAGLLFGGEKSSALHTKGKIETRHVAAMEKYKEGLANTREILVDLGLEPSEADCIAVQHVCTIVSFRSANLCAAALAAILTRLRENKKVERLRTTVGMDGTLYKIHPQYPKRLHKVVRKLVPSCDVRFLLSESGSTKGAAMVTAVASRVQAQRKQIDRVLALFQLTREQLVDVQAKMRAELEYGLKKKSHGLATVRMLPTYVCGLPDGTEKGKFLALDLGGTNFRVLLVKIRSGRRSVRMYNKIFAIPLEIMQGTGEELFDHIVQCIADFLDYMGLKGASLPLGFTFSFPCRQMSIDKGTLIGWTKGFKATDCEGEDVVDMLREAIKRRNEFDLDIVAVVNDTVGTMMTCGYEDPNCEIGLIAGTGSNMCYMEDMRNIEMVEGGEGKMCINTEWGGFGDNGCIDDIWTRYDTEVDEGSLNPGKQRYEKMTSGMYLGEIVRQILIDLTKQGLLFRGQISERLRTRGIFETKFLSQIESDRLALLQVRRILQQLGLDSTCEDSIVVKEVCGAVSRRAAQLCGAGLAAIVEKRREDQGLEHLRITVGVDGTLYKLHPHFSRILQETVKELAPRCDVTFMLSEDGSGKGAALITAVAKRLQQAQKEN

BJ [28] = experiment: BJ-TERT-LT-ST fibroblast viability loss – cell-based, RAS-independent, luminescence, dose response (AID 1935); format: functional; settings: Homo sapiens;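 note: BJ fibroblasts immortalized with TERT plus LT and ST oncogenes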
[29] = DRD fibroblast viability loss – cell-based, non-viral oncogenic, luminescence, dose response (AID 1934); format: functional; settings: Homo sapiens
BJ [30] = experiment: cells; format: functional, cell-based; settings: Homo sapiens
[31] = Luminescent dose response cell-based high throughput screening assay for inhibitors of the Janus kinase 2 mutant JAK2V617F. [Related pubchem assays: 1446 (Primary screen.), 1521 (Confirmation assay.), 1486 (Counter screen.)]; format: functional
BJ [32] = experiment: BJ-TERT fibroblast viability loss – cell-based, RAS-independent, luminescence, dose response (AID 1933); format: functional; settings: Homo sapiens

SMILES: Cn1c(SCC(=O)Nc2cccc(Br)c2)nnc1-c1cc2ccccc2o1
- IC50 [1]: 167 nM (active)
- EC50 [2]: 18.3 µM (not active)
- EC50 [3]: 13.3 µM (not active)
- IC50 [4]: 152 nM (active)
- EC50 [5]: 14.5 µM (not active)

SMILES: C/C(=N/Cc1cccnc1)C1=C(O)c2ccccc2C1=O
- AC50 [6]: 12.9 µM (active)
- IC50 [7]: 20 µM (not active)

SMILES: O=C(CSc1nc2ccccc2o1)N1c2ccccc2Sc2ccc(C(F)(F)F)cc21
- IC50 (NADPH oxidase 1): > 50 µM (not active)
- EC50 [8]: > 32 µM (inactive)

SMILES: Cc1ccc(/C=[N+](\[O-])c2ccc(N(C)C)cc2)c2nsnc12
- EC50 [9]: 2.41 µM (active)
- IC50 [10]: > 50 µM (not active)
- AC50 [11]: 7.84 µM (active)
- IC50 [12]: 9.25 µM (active)
- EC50 [13]: 8.84 µM (inconclusive)
- IC50 [14]: > 50 µM (not active)

SMILES: CC(C)c1c(C(=O)Nc2ccccc2)c(-c2ccccc2)c(-c2ccc(F)cc2)n1CC[C@@H](O)C[C@@H](O)CC(=O)O [ATORVASTATIN CALCIUM]
- IC50 [15]: 4.79 µM (active)
- IC50 [16]: > 20 µM (inactive)
- IC50 [17]: > 20 µM (inactive)
- IC50 [18]: > 20 µM (inactive)
- IC50 [19]: > 10 µM (inactive)
- IC50 [20]: > 20 µM (inactive)
- IC50 [21]: > 20 µM (inactive)
- IC50 [22]: > 20 µM (inactive)
- IC50 [23]: > 10 µM (inactive)

SMILES: CC1=CC(C#N)(C#N)C(C#N)(C#N)C(c2ccccc2)N1 (configuration not stated)
- IC50 (14-3-3 protein gamma): 3.15 µM (active)
- EC50 [24]: 3.14 µM (active)
- EC50 [25]: 2.46 µM (active)

SMILES: O=C1NC(=S)N(c2ccc(F)cc2)C(=O)/C1=C\c1ccoc1
- IC50 [26]: 50 µM (inactive)
- IC50 [27]: 1.53 µM (active)
- IC50 (Protein Tat): > 25 µM (active)
- IC50 (Large T antigen): 12.8 µM (active)
- IC50 (Hexokinase HKDC1): 10.7 µM (active)

SMILES: COc1ccc(Nc2nc(N)nc(CCl)n2)cc1
- EC50 (BJ [28]): > 150 µM (inconclusive)
- EC50 [29]: 2.25 µM (active)
- EC50 (BJ [30]): 3.57 µM (active)
- IC50 [31]: 1.45 µM (active)
- EC50 (BJ [32]): 498 nM (inconclusive)
